Earlier results in patent US20090117559A1, “Methods for Determining Probability of an Adverse or Favorable Reaction to a Niacin Receptor Agonist” (priority 2005, published 2009).

Tests used:
[1] = post administration of niacin by injection

For O=C(O)c1cccnc1 [niacin, nicotinic acid], the “patients who cease taking niacin treatment within days after initiating therapy” value (human, in vivo) is listed as 30-40%, the “subjects experiencing flushing in response to nicotinic acid therapy” value (unsegmented (general) population, Shepherd et al. 2005) is listed as 70-80% and the “time after which the flushing reaction declines significantly” value [1] is listed as “about 30 minutes”. The “time at which the flushing reaction peaks” value [1] was “about 3 minutes”.
